Reference: US20200315984A1 (priority 2013, published 2020)
Like-named read-outs stand apart in the source and are kept apart here.

Legend:
[1] = Extrapolated absorption data for dual-film dosage; type: in vivo; details: human, plasma, dual-layered film; for AUC: local pH 3.5 and 5.5, read-out: Naloxone AUC; for Cmax: local pH 3.5 and 5.5, read-out: Naloxone Cmax
Description: A dual-film dosage is prepared, with the first film layer having a local pH of about 3.5 and containing an antagonist therein, and the second film layer having a local pH of about 5.5 and containing an agonist therein. In this dual-film dosage, the first film layer (having the antagonist) is a fast-dissolving film, while the second film layer (having the agonist) is a moderate dissolving film.

[2] = cited from earlier work
[3] = other: sublingual or buccal film
[4] = other: sublingual/buccal film dissolved in the oral cavity

SMILES: C=CCN1CC[C@]23c4c5ccc(O)c4O[C@H]2C(=O)CC[C@@]3(O)[C@H]1C5 [naloxone]
- AUC [1, 3]: 0.0905 to 0.724 ng·h/mL
- Cmax [1, 3]: 0.0325 to 0.26 ng/mL
- AUC [1, 4]: 0.0906 to 0.724 ng·h/mL
- Cmax [1, 4]: 0.0325 to 0.26 ng/mL
- pKa [2]: about 7.94
